This is an account of results in patent US12421212B2, “Substituted benzenecarboxamides as IL-17A modulators” (DiCE Alpha, Inc., priority 2019, dated 2025).

pIC50: −log10 of the molar value.

In the first test the target is T1, IL-17A/A (Homo sapiens, UniProt Q16552).
T1 construct: purchased Genscript Z03228
T1 sequence (Q16552 24-155): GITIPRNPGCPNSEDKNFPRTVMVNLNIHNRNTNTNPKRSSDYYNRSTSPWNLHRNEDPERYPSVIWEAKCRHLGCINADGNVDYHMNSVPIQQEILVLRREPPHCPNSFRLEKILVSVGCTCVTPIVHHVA
Kind of test: IL-17A/A HEK-Blue Cell Assay. It is filed as cell-based.
Details: not given
Broadly, the pIC50 is the negative decadic logarithm of the IC50, by convention in mol/L. `CCc1nonc1C(=O)N[C@H](C(=O)Nc1ccc([C@H](C)[C@@H](NC(=O)CF)C(=O)N2CCN(C)[C@@H](C)C2)cc1F)[C@H]1CC[C@H](C)CC1` [Compound 510]: the negative-log IC50 (pIC50) is 7.00 to 8.00.

The same test, now with this note: HEK-Blue IL-17A reporter cell line, SEAP readout at A630, 20 hours incubation with IL-17A/A; top concentration 10 uM, 1 uM or 0.3 uM.
As for `CCc1nonc1C(=O)N[C@H](C(=O)Nc1ccc([C@H](C)[C@@H](NC(C)=O)C(=O)N2CCN(C)[C@@H](C)C2)cc1F)[C@H]1CC[C@H](C)CC1` [Compound 511], the “IL-17A/A inhibition (pIC50)” value is “A (compounds having a pIC50 of greater than or equal 8 as A)”.
With `CCc1nonc1C(=O)N[C@H](C(=O)Nc1ccc([C@H](C)[C@@H](NC(=O)C(F)F)C(=O)N2CCN(C)[C@@H](C)C2)cc1F)[C@H]1CC[C@H](C)CC1` [Compound 512], the “IL-17A/A inhibition (pIC50)” value is listed as “B (8>B≥7 as B)”.
For the compound `CCC(=O)N[C@@H](C(=O)N1CCN(C)CC1)[C@@H](C)c1ccc(NC(=O)C(NC(=O)c2ccnn2CC)C(C)c2ccccc2Cl)c(F)c1` (stereo partly shown) [Compound 519], the “IL-17A/A inhibition (pIC50)” value is “X3a (compounds were evaluated up to 0.3 uM and did not inhibit activity by >80%, however they showed some activity at 0.3 uM (less than 80% and more than 20%))”.
Regarding `CCC(=O)N[C@@H](C(=O)N1CCN(C)CC1)[C@@H](C)c1ccc(NC(=O)C(NC(=O)c2ccnn2CC)C(C)c2ccccc2Cl)c(F)c1` (stereo partly shown) [Compound 520], the “IL-17A/A inhibition (pIC50)” value was “X1b (compounds were evaluated up to 10 uM and inhibited activity at 10 uM by less than 20%)”.
Still for that read-out and setting: next, `CCC(=O)N[C@@H](C(=O)N1CCN(C)CC1)[C@@H](C)c1ccc(NC(=O)C(NC(=O)c2nonc2CC)C(C)c2ccccc2Cl)c(F)c1` (stereo partly shown) [Compound 522]: “X1b (compounds were evaluated up to 10 uM and inhibited activity at 10 uM by less than 20%)”; `CCC(=O)N[C@H](Cc1ccc(NC(=O)[C@@H](Nc2nccn3nccc23)C2CCCCC2)c(F)c1)C(=O)N1CCN(C)CC1` [Compound 540]: “X2b (compounds were evaluated up to 1 uM and inhibited activity at 1 uM by less than 20%)”.

The same test, now with this note: HEK-Blue IL-17A reporter cell line, SEAP readout at A630, 20 hours incubation with IL-17A/A; top concentration 10 uM, 1 uM or 0.3 uM; read-out: IL-17A/A inhibition (pIC50) (converted).
With `CCc1nonc1C(=O)N[C@H](C(=O)Nc1ccc([C@H](C)[C@@H](NC(=O)N(C)C2CC2)C(=O)N2CCN(C)[C@H](C)C2)cc1F)[C@H]1CC[C@H](C)CC1` [Compound 508], the IC50 was less than 10 nM.
Consider `CCc1nonc1C(=O)N[C@H](C(=O)Nc1ccc([C@H](C)[C@@H](NC(=O)N(C)C2CC2)C(=O)N2CCN(C)[C@@H](C)C2)cc1F)[C@H]1CC[C@H](C)CC1` [Compound 509], for which the IC50 is 10 to 100 nM.
On to `CCc1nonc1C(=O)N[C@H](C(=O)Nc1ccc([C@H](C)[C@@H](NC(=O)N(C)C2CC2)C(=O)N2CCN(C)CC2)cc1F)[C@H]1CC[C@H](C)CC1` [Compound 513], for which the IC50 is less than 10 nM.
For the compound `CCc1nonc1C(=O)N[C@H](C(=O)Nc1ccc([C@H](C)[C@@H](NC(=O)N(C)C)C(=O)N2CCN(C)CC2)cc1F)[C@H]1CC[C@H](C)CC1` [Compound 514], the IC50 was less than 10 nM.
For the compound `CCc1nonc1C(=O)N[C@H](C(=O)Nc1ccc([C@H](C)[C@@H](NC(=O)N2CCCC2)C(=O)N2CCN(C)CC2)cc1F)[C@H]1CC[C@H](C)CC1` [Compound 515], the IC50 is 10 to 100 nM.
`CCc1nonc1C(=O)N[C@H](C(=O)Nc1ccc([C@H](C)[C@@H](NC(=O)N(C)C2CCC2)C(=O)N2CCN(C)CC2)cc1F)[C@H]1CC[C@H](C)CC1` [Compound 516]: the IC50 is less than 10 nM.
Regarding `CCc1nonc1C(=O)N[C@H](C(=O)Nc1ccc([C@H](C)[C@@H](NC(=O)NC2CC2)C(=O)N2CCN(C)CC2)cc1F)[C@H]1CC[C@H](C)CC1` [Compound 517], the IC50 was less than 10 nM.
With `CCc1nonc1C(=O)N[C@H](C(=O)Nc1ccc([C@H](C)[C@@H](NS(=O)(=O)CC)C(=O)N2CCN(C)CC2)cc1F)[C@H]1CC[C@H](C)CC1` [Compound 518], the IC50 was 10 to 100 nM.
With `CCC(=O)N[C@@H](C(=O)N1CCN(C)CC1)[C@@H](C)c1ccc(NC(=O)C(NC(=O)c2nonc2CC)C(C)c2ccccc2Cl)c(F)c1` (stereo partly shown) [Compound 521], the IC50 was 100 to 10000 nM.
Take `CCC(=O)N[C@@H](C(=O)N1CCN(C)CC1)[C@@H](C)c1ccc(NC(=O)[C@@H](NC(=O)C(F)(F)c2cnn(CC)c2)[C@H]2CC[C@H](C)CC2)c(F)c1` [Compound 523]: the IC50 was less than 10 nM.
The same measure, in the same setting: then `CCC(=O)N[C@@H](C(=O)N1CCN(C)CC1)[C@@H](C)c1ccc(NC(=O)[C@@H](NC(=O)c2occc2CC)[C@H]2CC[C@H](C)CC2)c(F)c1` [Compound 524], with 10 to 100 nM; and `CCn1nnnc1C(=O)N[C@H](C(=O)Nc1ccc([C@H](C)[C@@H](NC(=O)c2cnns2)C(=O)N2CCN(C)CC2)cc1F)[C@H]1CC[C@H](C)CC1` [Compound 525], with 10 to 100 nM; and `C[C@@H](c1ccc(NC(=O)[C@@H](NC(=O)c2coc3ccncc23)[C@H]2CC[C@H](C)CC2)c(F)c1)[C@@H](NC(=O)c1cnns1)C(=O)N1CCN(C)CC1` [Compound 526], with 10 to 100 nM.
As for `CCC(=O)N[C@@H](C(=O)N1CCN(C)CC1)[C@@H](C)c1ccc(NC(=O)[C@@H](NC(=O)c2nnnn2CC)[C@H]2CC[C@H](C)CC2)c(F)c1` [Compound 527], the IC50 was 10 to 100 nM.
As to `CCC(=O)N[C@@H](C(=O)N1CCN(C)CC1)[C@@H](C)c1ccc(NC(=O)[C@@H](NC(=O)C(F)(F)c2cncc(C#N)c2)[C@H]2CC[C@H](C)CC2)c(F)c1` [Compound 530], the IC50 was less than 10 nM.
`CCC(=O)N[C@@H](C(=O)N1CCC(O)CC1)[C@@H](C)c1ccc(NC(=O)[C@@H](NC(=O)c2cnn(C3CCCC3)c2)[C@H]2CC[C@H](C)CC2)c(F)c1` [Compound 531]: the IC50 is 10 to 100 nM.
Regarding `CCC(=O)N[C@@H](C(=O)N1CCN(Cc2ccccc2)CC1)[C@@H](C)c1ccc(NC(=O)[C@@H](NC(=O)C(F)(F)c2cncc(OC)c2)[C@H]2CC[C@H](C)CC2)c(F)c1` [Compound 532], the IC50 is 10 to 100 nM.
Consider `CCC(=O)N[C@@H](C(=O)N1CCC(C)(O)CC1)[C@@H](C)c1ccc(NC(=O)[C@@H](NC(=O)C(F)(F)c2cnn(CC)c2)[C@H]2CC[C@H](C)CC2)c(F)c1` [Compound 533], for which the IC50 is less than 10 nM.
Take `CCC(=O)N[C@@H](C(=O)N1CCC(F)(F)CC1)[C@@H](C)c1ccc(NC(=O)[C@@H](NC(=O)c2conc2C(C)(C)N)[C@H]2CC[C@H](C)CC2)c(F)c1` [Compound 534]: the IC50 is 10 to 100 nM.
Turning to `CCn1nccc1C(=O)N[C@H](C(=O)Nc1ccc([C@H](C)[C@@H](NC(=O)C2CC2)C(=O)N2CCN(C)CC2)cc1F)C1CCCCCC1` [Compound 535], the IC50 is less than 10 nM.
Regarding `C[C@@H](c1ccc(NC(=O)[C@@H](NC(=O)C(F)(F)C2CC2)C2CCCCCC2)c(F)c1)[C@@H](NC(=O)c1cnns1)C(=O)N1CCN(C)CC1` [Compound 536], the IC50 is 10 to 100 nM.
On to `CCC(=O)N[C@@H](C(=O)N[C@@H](C)C1CC1)[C@@H](C)c1ccc(NC(=O)[C@@H](NC(=O)c2ccnn2CC)C2CCCCCC2)c(F)c1` [Compound 537], for which the IC50 is 10 to 100 nM.
Consider `CCC(=O)N[C@@H](C(=O)NCC1CCC1)[C@@H](C)c1ccc(NC(=O)[C@@H](NC(=O)c2ccnn2CC)C2CCCCCC2)c(F)c1` [Compound 538], for which the IC50 was less than 10 nM.
For the compound `[2H]C([2H])([2H])N1CCN(C(=O)[C@H](NC(=O)CC)[C@@H](C)c2ccc(NC(=O)[C@@H](NC(=O)c3ccnn3CC)[C@H]3CC[C@H](C)CC3)c(F)c2)CC1` [Compound 539], the IC50 was less than 10 nM.
